Reference: patent US20030181373A1, “Vascular relaxation agents” (priority 2000, published 2003)

What was measured:
[1] = test system: extirpated mouse lymph duct (efferent lymph duct of iliac lymph node); assay: Test for inhibition of spontaneous contraction of lymph duct (perfused extirpated mouse lymph duct, video microscope); design: species or system DDY mice
Protocol: The evaluation method of relaxation or contraction response is conducted based on a value (relative spontaneous contraction suppression) obtained by dividing the number of spontaneous contractions per minute observed after drug administration until returning to even spontaneous contractions by the average number of spontaneous contractions per minute before drug administration. For example, supposing that it takes 3 minutes to return to even spontaneous contractions after drug administration and that the contractions occur 9 times during that period, the value after drug administration is 3 times/minute. Therefore, if the frequency before drug administration is 15 times/minute, the suppression effect is represented as 20%, which is calculated by dividing 3 by 15 and standardizing the quotient as a percent.
Pentbarbital sodium (50 mg/kg) was intraperitoneally administered to DDY mice (male, 5 to 6 weeks old) so as to be anesthetized and sacrificed, and an efferent lymph duct of an iliac lymph node (with a maximum inner diameter of 300 μm) was extirpated. The extirpated lymph duct was preserved in a chilled Krebs solution (120 mM NaCl, 5.9 mM KCl, 2.5 mM CaCl2, 1.2 mM MgSO4, 1.2 mM NaH2PO4, 5.5 mM glucose, 25.0 mM NaHCO3) at 4° C.
The inner diameter of the perfused extirpated mouse lymph duct specimen, as obtained above, was measured using a video microscope system (FIG. 1). An internal pressure of 3 to 4 cm H2O was supplied to the specimen to induce spontaneous contraction.
Effects of PTHrP(1-34) on spontaneous contraction of the lymph duct were examined and compared with a control, in the presence of NO synthesis inhibitor (L-NAME, 3×10^−5 M), L-arginine (10^−3 M) as a substrate of […], glibenclamide 10^−6 M as an ATP-sensitive K^+ channel inhibitor, and PTHrP(7-34) as a PTH receptor antagonist.

[2] = test system: extirpated human medullary arteriole; assay: Relaxation effects on an extirpated human medullary arteriole (perfused specimen); conditions: control 127 μm
Protocol: Resistance vessel extirpated from femoral cancellous bone and the inside of femoral bone marrow during an artificial joint replacement surgery of a human (malum coxae) was used as a sample of human medullary arteriole. The extirpated femoral concellous bone and femoral bone marrow were preserved in a chilled Krebs solution (at 4° C. or lower), and thereafter used in the following in vitro experiment.
A perfused specimen from this sample was prepared in the same manner as the perfused specimen of the extirpated mouse miniature lymph duct in Example 1.
An image of the diameter of the specimen was captured through an object lens, a taking lens, and a CCD camera in the same manner as Example 2.
With respect to the perfused specimen as prepared above, relaxation effect of PTHrP(1-34)(10^−8M) in the presence of vasoconstricting norepinephrine (NE, 10^−6 M) was examined.

[3] = test system: extirpated rat medullary arteriole; assay: Inner diameter changes of perfused medullary arteriole specimen of rat thigh bone; design: species or system Wistar rats
Protocol: Wistar rats (male, 5 to 6 weeks old) were anesthetized with pentbarbital ([…] of intraperitoneal administration) and sacrificed. All the skin, muscle, and ligament attached to the thigh bones were removed so as to expose and extirpate the thigh bones. The extirpated thigh bones were preserved in Krebs solution (at approximately 4° C.) for approximately 30 minutes. Strength was applied along the long axis direction of the thigh bone using mosquito forceps so as to crack the thigh bone along the long axis. Then, the cracked thigh bone was place into a petri dish (containing Krebs solution at approximately 4° C.) which was coated with SILIGUARD. Under a stereoscopic microscope, the thigh bone was removed using microsurgical forceps (commercially available forceps that was further sharpened by a grinder) to expose the bone marrow.
Krebs solution (at approximately 4° C.) was filled into a 1 ml syringe (having a 27G needle attached thereto) and the inside of the bone marrow was washed with the Krebs solution so as to remove myeloid cells adhering to blood vessels.
As a result, a blood vessel network was observed (FIG. 8), and arterioles indicated by black wedge-shaped arrowheads were extirpated under a stereoscopic microscope using micro cusps and microsurgical forceps.
The extirpated medullary arteriole was fixed in an apparatus for preparing a perfused specimen (FIG. 1, vessel chamber 9), and a hydrostatic pressure was supplied thereto so as to wash and remove blood from the arteriole lumen. The inner pressure of the specimen was kept at 40 mmHg during the experiment and the exposed side of the specimen was continuously perfused (12 ml/min) with Krebs solution which was kept at 37° C. and pH of 7.4.
An image of the diameter of the specimen was captured through a object lens, a taking lens, and a CCD camera.

In the case of `COC(=O)[C@@H](N)CCCNC(=N)N[N+](=O)[O-]` [L-NAME, N^G-nitro L-arginine methyl ester], the “effect on inhibition of spontaneous lymph duct contraction by PTHrP(1-34), typical response” value ([1]; L-NAME 3×10^−5 M, PTHrP(1-34) 3×10^−9 M, FIG. 3B) was “cancelled out” and the “effect on lymph duct relaxation by PTHrP(1-34), four measurements” value ([1]; in the presence of L-NAME (3×10^−5 M), FIG. 4) was “significantly cancelled out”.
For `N=C(N)NCCC[C@H](N)C(=O)O` [L-arginine], the “effect of simultaneous treatment with L-NAME on the cancellation effect, typical response” value ([1]; L-arginine 10^−3 M with L-NAME 3×10^−5 M, PTHrP(1-34) 3×10^−9 M, FIG. 3C) was “suppressed the cancellation effect of L-NAME” and the “effect of simultaneous treatment with L-NAME on the cancellation effect, four measurements” value ([1]; L-arginine (10^−3 M) with L-NAME (3×10^−5 M), FIG. 4) was “significantly suppressed the cancellation effect of L-NAME”.
`NC[C@H](O)c1ccc(O)c(O)c1` [NE, norepinephrine] was tested, and the “inner diameter of perfused specimen in the presence of NE” value ([2]; NE 10^−6 M, internal pressure 55 mmHg, FIG. 11(b)) was 33 μm.
In the case of `COc1ccc(Cl)cc1C(=O)NCCc1ccc(S(=O)(=O)NC(=O)NC2CCCCC2)cc1` [glibenclamide], the “effect on lymph duct relaxation caused by PTHrP(1-34), typical response” value ([1]; glibenclamide 10^−6 M, PTHrP(1-34) 3×10^−9 M, FIG. 5B) was “cancelled out” and the “effect on lymph duct relaxation caused by PTHrP(1-34), four measurements” value ([1]; glibenclamide (10^−6 M), FIG. 6) was “significantly cancelled out”.
In the case of “PTHrP(1-34): peptide comprising a sequence of 1 to 34 amino acids relative to the amino acid sequences of the PTHrP”, the “inner diameter of perfused specimen after addition of PTHrP(1-34) in the presence of NE” value ([2]; PTHrP(1-34) 10^−8 M with NE 10^−6 M, NE alone 33 μm, FIG. 11(c)) was 121 μm, the “frequency of spontaneous contraction after drug administration” value ([1]; 3×10^−10 of PTHrP(1-34), 15 times/minute before drug administration, FIG. 2A) was 13 times/minute and the “effect on spontaneous contractions of the lymph duct at increased concentration” value ([1]; PTHrP(1-34) 10^−9 M, 3×10^−9 M, in addition to dilation responses, FIG. 2A) was “stopped remarkably”. For the same compound, the “effect of increasing PTHrP(1-34) on lymph duct (relative spontaneous contraction frequency ratio)” value ([1]; control without L-NAME and L-arginine, four measurements, FIG. 4) was “relaxed the lymph duct”, the “tachyphylaxis on repeated dose response” value ([1]; same specimen washed for 1 hour, dose response re-examined, FIG. 2B) was “induced remarkable tachyphylaxis” and the “dose dependence of dilation effect” value ([3]; 10^−10 to 10^−8 M, FIG. 10) was “dose dependent”. For the same compound, the “inner diameter at maximum dilation (relaxation) after administration” value ([3]; PTHrP(1-34) 10^−8 M, dilated from 66 μm, passive diameter 120 μm, internal pressure 40 mmHg, FIG. 9) was 114 μm and the “dose at which dilation response was induced” value ([3]; dose range 10^−10 to 10^−8 M, FIG. 10) was 10^−9 M.
“PTHrP(7-34): peptide having a sequence comprising from 7 to 34 amino acids of PTHrP; PTH/PTHrP receptor antagonist” was tested, and the “effect on lymph duct relaxation by PTHrP(1-34), four individual examples” value ([1]; PTHrP(7-34) 10^−7 M, PTHrP(1-34) 10^−10 to 3×10^−9 M, FIG. 7) was “significantly cancelled out”.
